From patent publication US20240327412A1, “FACTOR XIIA INHIBITORS” (KALVISTA PHARMACEUTICALS LIMITED, priority 2021, published 2024)
pIC50: −log10 of the molar value.

Legend:
FXIa = FXIa (Homo sapiens, UniProt P03951); assay: Related protease inhibition: FXIa (fixed substrate concentration of 100 μM); assay type: biochemical; settings: class symbols per Table 18
Procedure: (§1) In vitro inhibition of related proteases was determined using an IC50 assay based on standard literature methods (see e.g. Shori et al., Biochem. Pharmacol., 1992, 43, 1209; Bouckaert et al., European Journal of Medicinal Chemistry 110 (2016) 181). Human serine protease enzyme Plasma Kallikrein, KLK1, FXa, Plasmin, Thrombin and Trypsin were assayed for enzymatic activity using an appropriate fluorogenic substrate at Km concentration, FXIa at fixed substrate concentration of 100 μM and various concentrations of the test compound. Protease activity was measured by monitoring the accumulation of liberated fluorescence from the substrate over 5 min at 25° C. The linear rate of fluorescence increase per minute was expressed as percentage (%) activity. IC50 values were calculated as the concentration of inhibitor giving 50% inhibition of the uninhibited enzyme activity (100%).

Human Factor XIIa = biological target: T1, Human Factor XIIa (Homo sapiens, UniProt P00748); assay: Determination of FXIIa inhibition (fluorogenic substrate H-DPro-Phe-Arg-AFC, IC50 assay); assay type: biochemical; settings: substrate at Km concentration, 25° C.; category scale; read-out: Human FXII IC50 (nm)
T1 construct: Proteolytic cleavage of FXII to heavy and light chains of FXIIa dramatically increases catalytic activity; purchased Enzyme Research Laboratories
T1 sequence (P00748 373-615 limits assumed): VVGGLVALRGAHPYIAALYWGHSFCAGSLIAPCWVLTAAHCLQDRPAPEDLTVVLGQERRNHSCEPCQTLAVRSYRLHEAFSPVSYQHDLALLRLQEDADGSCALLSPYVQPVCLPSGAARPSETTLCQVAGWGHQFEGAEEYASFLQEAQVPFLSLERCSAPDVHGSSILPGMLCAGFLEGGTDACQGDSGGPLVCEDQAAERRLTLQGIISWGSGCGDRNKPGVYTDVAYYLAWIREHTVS
T1 sequence (P00748 20-372 partner limits assumed): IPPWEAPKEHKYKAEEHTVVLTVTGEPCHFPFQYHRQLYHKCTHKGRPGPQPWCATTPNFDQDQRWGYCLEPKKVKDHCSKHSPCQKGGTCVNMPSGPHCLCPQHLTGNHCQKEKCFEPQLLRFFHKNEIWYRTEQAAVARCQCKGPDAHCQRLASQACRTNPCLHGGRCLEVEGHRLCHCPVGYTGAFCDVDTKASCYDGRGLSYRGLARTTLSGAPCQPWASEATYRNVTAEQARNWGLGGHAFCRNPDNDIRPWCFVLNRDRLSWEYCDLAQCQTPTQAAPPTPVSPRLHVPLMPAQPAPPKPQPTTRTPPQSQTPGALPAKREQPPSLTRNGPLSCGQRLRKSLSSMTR
Procedure, shortened: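 Human FXIIa incubated at 25° C. with fluorogenic H-DPro-Phe-Arg-AFC at its Km concentration plus varying compound levels. Linear fluorescence increase over 5 min taken as % activity; IC50 is concentration halving uninhibited activity.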

Thrombin = Thrombin (Homo sapiens, UniProt P00734); assay: Related protease inhibition: Thrombin (fluorogenic substrate at Km); assay type: biochemical; settings: class symbols per Table 18
Procedure, shortened: (§2)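 Human enzymes; fluorogenic substrate at Km for thrombin, trypsin and plasma kallikrein, but fixed at 100 μM for FXIa. Fluorescence release followed over 5 min at 25 °C, linear rate expressed as % of uninhibited activity; IC50 = inhibitor concentration giving 50% inhibition.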

FXa = FXa (Homo sapiens, UniProt P00742); assay: Related protease inhibition: FXa (fluorogenic substrate at Km); assay type: biochemical; settings: class symbols per Table 18
FXa, sequence (P00742 235-488 limits assumed): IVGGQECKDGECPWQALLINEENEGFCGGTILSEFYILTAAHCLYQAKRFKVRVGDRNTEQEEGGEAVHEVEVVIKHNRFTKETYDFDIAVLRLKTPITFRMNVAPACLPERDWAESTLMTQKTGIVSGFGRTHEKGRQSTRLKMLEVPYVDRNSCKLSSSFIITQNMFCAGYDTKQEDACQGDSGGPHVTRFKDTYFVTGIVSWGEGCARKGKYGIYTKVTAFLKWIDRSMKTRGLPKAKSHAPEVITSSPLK
FXa, sequence (P00742 41-179 partner limits assumed): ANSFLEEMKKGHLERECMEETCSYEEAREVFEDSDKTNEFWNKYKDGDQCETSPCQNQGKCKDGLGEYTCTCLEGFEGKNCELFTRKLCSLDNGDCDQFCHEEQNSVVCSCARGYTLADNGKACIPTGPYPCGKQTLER
Procedure, shortened: (§3)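 Enzymatic activity was followed as release of fluorescence from a fluorogenic substrate over 5 min at 25° C, with test compound at various concentrations. The linear rate per minute was converted to % activity, and IC50 was taken as the concentration giving 50% inhibition of uninhibited enzyme activity.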

Plasma Kallikrein = biological target: T2, Plasma Kallikrein (Homo sapiens, UniProt P03952); assay: Related protease inhibition: Plasma Kallikrein (fluorogenic substrate at Km); assay type: biochemical; settings: class symbols per Table 18, read-out: IC50 (human PKal)
T2 construct: FXIIa converts plasma prekallikrein (PK) to plasma kallikrein (PKa)
T2 sequence (P03952 391-638 limits assumed): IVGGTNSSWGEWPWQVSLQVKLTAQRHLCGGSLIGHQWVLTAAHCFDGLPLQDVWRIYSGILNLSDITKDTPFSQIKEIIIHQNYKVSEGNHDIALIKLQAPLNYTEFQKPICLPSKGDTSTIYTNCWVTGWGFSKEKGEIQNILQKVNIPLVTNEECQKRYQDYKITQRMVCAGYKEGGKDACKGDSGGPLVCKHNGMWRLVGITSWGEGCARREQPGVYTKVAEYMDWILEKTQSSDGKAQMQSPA
T2 sequence (P03952 20-390 partner limits assumed): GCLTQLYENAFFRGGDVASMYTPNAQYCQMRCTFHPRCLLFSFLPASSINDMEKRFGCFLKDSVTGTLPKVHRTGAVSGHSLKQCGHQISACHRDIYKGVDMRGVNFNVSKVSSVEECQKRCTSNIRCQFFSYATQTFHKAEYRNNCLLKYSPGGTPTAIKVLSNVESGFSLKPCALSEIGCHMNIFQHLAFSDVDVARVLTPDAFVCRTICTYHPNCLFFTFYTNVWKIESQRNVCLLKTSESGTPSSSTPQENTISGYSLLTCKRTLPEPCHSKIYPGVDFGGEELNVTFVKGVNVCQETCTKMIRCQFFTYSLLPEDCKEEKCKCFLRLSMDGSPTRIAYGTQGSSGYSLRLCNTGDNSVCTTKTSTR
Procedure, shortened: as §2

KLK1 = KLK1 (Homo sapiens, UniProt P06870); assay: Related protease inhibition: KLK1 (fluorogenic substrate at Km); assay type: biochemical; settings: class symbols per Table 18
KLK1, sequence (P06870 25-262): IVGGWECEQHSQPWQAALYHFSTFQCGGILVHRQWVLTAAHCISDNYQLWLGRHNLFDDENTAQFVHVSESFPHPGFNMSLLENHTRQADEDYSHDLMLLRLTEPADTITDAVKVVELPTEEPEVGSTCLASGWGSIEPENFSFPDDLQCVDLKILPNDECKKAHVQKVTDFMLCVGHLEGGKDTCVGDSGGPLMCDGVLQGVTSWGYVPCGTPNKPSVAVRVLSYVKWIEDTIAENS
Procedure, shortened: as §3

Trypsin = Trypsin (Homo sapiens, UniProt P07477); assay: Related protease inhibition: Trypsin (fluorogenic substrate at Km); assay type: biochemical; settings: class symbols per Table 18
Procedure: as §1

Plasmin = Plasmin (Homo sapiens, UniProt P00747); assay: Related protease inhibition: Plasmin (fluorogenic substrate at Km); assay type: biochemical; settings: class symbols per Table 18
Plasmin, sequence (P00747 581-810 limits assumed): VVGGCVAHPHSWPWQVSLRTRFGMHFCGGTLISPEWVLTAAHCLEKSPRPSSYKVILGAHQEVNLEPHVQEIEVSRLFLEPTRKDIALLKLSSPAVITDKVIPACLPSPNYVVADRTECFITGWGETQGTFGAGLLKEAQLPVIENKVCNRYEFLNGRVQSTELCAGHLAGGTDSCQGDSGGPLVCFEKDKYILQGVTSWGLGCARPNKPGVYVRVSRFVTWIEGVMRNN
Plasmin, sequence (P00747 97-580 partner limits assumed): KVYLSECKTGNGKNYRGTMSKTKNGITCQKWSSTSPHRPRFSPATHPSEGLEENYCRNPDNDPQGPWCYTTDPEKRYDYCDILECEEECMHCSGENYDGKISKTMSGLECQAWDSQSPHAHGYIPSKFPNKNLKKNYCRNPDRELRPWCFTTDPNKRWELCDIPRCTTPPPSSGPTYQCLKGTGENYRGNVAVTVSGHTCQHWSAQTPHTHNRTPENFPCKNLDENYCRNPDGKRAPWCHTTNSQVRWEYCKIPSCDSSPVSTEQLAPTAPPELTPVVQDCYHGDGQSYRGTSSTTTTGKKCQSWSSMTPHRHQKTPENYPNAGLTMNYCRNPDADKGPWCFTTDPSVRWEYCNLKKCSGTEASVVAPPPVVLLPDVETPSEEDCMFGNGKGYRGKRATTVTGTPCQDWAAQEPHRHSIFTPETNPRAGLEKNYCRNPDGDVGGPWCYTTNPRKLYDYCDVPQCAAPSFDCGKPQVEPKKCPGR
Procedure: as §1

[1] = tested on: patients with type I/II hereditary angioedema (HAE); settings: phase 2, monthly prophylactic subcutaneous treatment; cited from earlier work
[2] = Pharmacokinetics after single intravenous and single oral dose in rats; assay type: in vivo; settings: rat, plasma, male Sprague-Dawley rats, single iv (nominal 1 mg/kg) and single po (nominal 5 mg/kg) dose; for half-life: Phoenix WinNonlin; for bioavailability: oral bioavailability, 10% DMSO/10% Cremophor EL/80% SWFI
Procedure: Pharmacokinetic studies of the compounds in Table 19 were performed to assess the pharmacokinetics following a single intravenous dose and a single oral dose in male Sprague-Dawley rats. Two rats were given a single intravenous dose of 1 mL/kg of a nominal 1 mg/ml (1 mg/kg) composition of test compound in 10% DMSO/10% Cremophor EL/80% SWFI vehicle. Two rats were given a single oral dose of 5 ml/kg of a nominal 1 mg/mL (5 mg/kg) composition of test compound in 10% DMSO/10% Cremophor EL/80% SWFI vehicle.
Following intravenous dosing, blood samples were collected over a period of 12 h. Sample times were 2, 5, 15 and 30 min then 1, 2, 4, 6, and 12 h. Following oral dosing, blood samples were collected over a period of 24 h. Sample times were 5, 15 and 30 min then 1, 2, 4, 6, 8, 12 and 24 h.
Following collection, blood samples were centrifuged and the plasma fraction analysed for concentration of test compound by LCMS. Oral bioavailability and half-life calculations from these studies were obtained using Phoenix WinNonlin (v8.0) and are shown below: […]

FXIa, sequence (P03951 388-625 limits assumed): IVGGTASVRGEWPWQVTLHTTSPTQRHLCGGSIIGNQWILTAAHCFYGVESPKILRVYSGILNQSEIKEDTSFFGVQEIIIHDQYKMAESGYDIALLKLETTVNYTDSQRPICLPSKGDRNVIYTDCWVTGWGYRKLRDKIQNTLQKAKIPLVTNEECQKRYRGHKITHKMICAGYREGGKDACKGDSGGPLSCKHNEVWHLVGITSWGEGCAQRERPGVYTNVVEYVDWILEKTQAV
FXIa, sequence (P03951 19-387 partner limits assumed): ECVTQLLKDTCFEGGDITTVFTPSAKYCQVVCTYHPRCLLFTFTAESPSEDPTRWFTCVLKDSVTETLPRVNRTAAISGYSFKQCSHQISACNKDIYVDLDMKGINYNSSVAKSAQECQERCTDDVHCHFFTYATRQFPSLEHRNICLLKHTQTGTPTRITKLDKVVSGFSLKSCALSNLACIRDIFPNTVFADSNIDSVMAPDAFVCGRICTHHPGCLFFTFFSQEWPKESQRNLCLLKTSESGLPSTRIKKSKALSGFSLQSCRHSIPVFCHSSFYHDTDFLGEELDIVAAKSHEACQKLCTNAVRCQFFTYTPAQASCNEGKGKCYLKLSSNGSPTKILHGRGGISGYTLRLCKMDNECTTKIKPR

Row | pIC50 (FXIa) | pIC50 (Human Factor XIIa) | pIC50 (Thrombin) | pIC50 (FXa) | pIC50 (Plasma Kallikrein) | pIC50 (KLK1) | pIC50 (Trypsin) | pIC50 (Plasmin) | half-life [2] [h] | bioavailability [2] [%] | Compound | preventing attacks [1] | tolerability [1]
1 | < 4.40 | 6.52 to 7.00 | 4.40 to 5.00 | 4.40 to 5.00 | < 4.40 | 5.00 to 5.52 | 4.40 to 5.00 | < 4.40 |  |  | Nc1nccc2c(NCC34CC(COC5CCn6ccnc6C5)(C3)C4)cccc12 (racemic) [Example 1002, N5-((3-(((5,6,7,8-Tetrahydroimidazo[1,2-a]pyridin-7-yl)oxy)methyl)bicyclo[1.1.1]pentan-1-yl)methyl)isoquinoline-1,5-diamine] |  | 
2 |  |  |  |  |  |  |  |  |  |  | Garadacimab: "a monoclonal antibody inhibitory against FXIIa" | effective in preventing attacks | well tolerated
3 | < 4.40 | 6.52 to 7.00 | 4.40 to 5.00 | 4.40 to 5.00 | < 4.40 | 5.00 to 5.52 | < 4.40 | < 4.40 | 7.83 | 30.4 | Nc1nccc2c(NCC34CC(COc5ccn6ccnc6c5)(C3)C4)cccc12 [Example 1001, N5-((3-((Imidazo[1,2-a]pyridin-7-yloxy)methyl)bicyclo[1.1.1]pentan-1-yl)methyl)isoquinoline-1,5-diamine] |  | 
4 |  | 7.00 to 8.00 | < 4.40 | 5.52 to 6.00 | 4.40 to 5.00 | 5.52 to 6.00 | 4.40 to 5.00 | < 4.40 | 6.64 | 14.8 | Cc1cnc2ccc(OCC34COC(CNc5cccc6c(N)nccc56)(C3)C4)cn12 [Example 6624, 5-N-[[4-[(3-Methylimidazo[1,2-a]pyridin-6-yl)oxymethyl]-2-oxabicyclo[2.1.1]hexan-1-yl]methyl]isoquinoline-1,5-diamine] |  | 
